We go through 3 compounds from paper PMC4850106 (Journal of medicinal chemistry, 2016).

In series [1] the test system is brain-like endothelial cells cocultured with pericytes. Briefly: In vitro human BBB cell-based model. The class given is in vitro ADME. As to conditions: cell-based BBB model, 200 µM, 2 h.
Series [2] is described as follows: In vitro human BBB cell-based model. It is filed as in vitro ADME. As to conditions: human.
Another series in a line: BBB-PAMPA assay. The class given is in vitro ADME, porcine. As to conditions: 500 µM in donor, 4 h. (The PAMPA barrier holds no transporters, so it reflects passive diffusion.)
The next series relates to mice (C57BL6). As to conditions: acute pain, increased dosing ref 73; cited from earlier work.
Another series deals with neuropathic mice. The note with it: neuropathic conditions ref 73; cited from earlier work.
The test system of another series is Sprague–Dawley rats. Briefly: Respiratory effects by whole body plethysmography in rats. As to conditions: iv, 13a 0.5 mg/kg, morphine 5 mg/kg. It is filed as in vivo.
The next series addresses human NOP (Homo sapiens, UniProt P41146). The note with it: read-out: Ki for the human NOP; cited from earlier work.

As usually defined, the Papp A→B is how fast a substance crosses the layer from the apical side. Usually Ki stands for the dissociation constant of the complex between target and ligand, obtained from inhibition or displacement.

Chain of human NOP (P41146 whole entry): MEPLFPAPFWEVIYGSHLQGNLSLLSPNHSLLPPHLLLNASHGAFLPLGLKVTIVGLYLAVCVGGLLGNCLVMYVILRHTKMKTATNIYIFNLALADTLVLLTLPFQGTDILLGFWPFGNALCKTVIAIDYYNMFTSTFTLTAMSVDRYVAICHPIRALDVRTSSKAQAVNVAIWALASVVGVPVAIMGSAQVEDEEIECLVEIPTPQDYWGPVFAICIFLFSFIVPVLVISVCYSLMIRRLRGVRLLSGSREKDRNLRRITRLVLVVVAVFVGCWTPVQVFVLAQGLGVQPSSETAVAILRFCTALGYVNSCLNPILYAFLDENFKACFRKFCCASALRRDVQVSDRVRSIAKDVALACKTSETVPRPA

`CC[C@H](C)[C@H](NC(=O)[C@H](CCCN=C(N)N)NC(=O)[C@H](Cc1ccc(O)cc1)NC(=O)[C@H](Cc1ccc(O)cc1)NC(=O)[C@H](CCCN=C(N)N)NC(C)=O)C(=O)N[C@@H](CCCCN)C(N)=O` [compound 8, Ac-Arg-Tyr-Tyr-Arg-Ile-Lys-NH2]: in series [1], the “mass balance (%)” value worked out at 95% and the “transport (%)” value is 14%. Further, in series [2], the apparent permeability from apical to basolateral (Papp A→B) at 2 h, 200 µM amounted to 8.4 ×10⁻⁶ cm/s. Besides, the “transport (%)” value in “BBB-PAMPA assay” stood at 0.15%.
Turning to `CN1CC[C@]23c4c5ccc(O)c4O[C@H]2[C@@H](O)C=C[C@H]3[C@H]1C5` [morphine], in the series on mice (C57BL6), the “%MPE in tail-flick test upon increased dosing” value is reported as 100 %MPE. Also, in the series with neuropathic mice, the “sustained %MPE no matter how high the dose” value is on record as “about 50 %MPE”. Besides, in the series on Sprague–Dawley rats, the inspiratory time entry is “significant increase in inspiratory time” and the respiratory frequency entry is “decrease in respiratory frequency”. Besides, the “respiratory depression (ventilation minute)” value in the series on Sprague–Dawley rats (vs saline, AUC) is on record as “deleterious effect”.
Regarding “Ac-Arg-Tyr-Tyr-Arg-Trp-Arg-NH2 (Ac-RYYRWR-NH2)”, the Ki in the series with human NOP was 100 pM.
